Data reported in PubChem BioAssay (NCI).
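Step 1: Grow cells in 96-well plates. Step 2: Expose to compound for 48 hours at 5 concentrations. Step 3: Interpolate endpoints linearly; if unreached, use highest concentration. GI50 = concentration required for 50% inhibition of growth. TGI denotes the concentration required for complete inhibition of growth.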

Tests used:
Test in all cases: NCI tumour cell line growth inhibition, 48 h
[1] = test system: HOP-92 NSCLC
[2] = test system: OVCAR-5 ovarian
[3] = test system: 786-0 renal
[4] = test system: MCF7 breast
[5] = test system: SF-268 CNS
[6] = test system: NCI-H460 lung
[7] = test system: SN12C renal
[8] = test system: SNB-19 CNS
[9] = test system: TK-10 renal
[10] = test system: SK-MEL-28 melanoma
[11] = test system: PC-3 prostate
[12] = test system: K-562 leukemia
[13] = test system: SF-295 CNS
[14] = test system: NCI/ADR-RES ovarian
[15] = test system: RPMI-8226 leukemia
[16] = test system: U251 CNS
[17] = test system: UACC-62 melanoma
[18] = test system: RXF 393 renal
[19] = test system: MDA-MB-231 breast
[20] = test system: SK-MEL-2 melanoma
[21] = test system: OVCAR-3 ovarian
[22] = test system: SK-OV-3 ovarian
[23] = test system: SW-620 colon
[24] = test system: CCRF-CEM leukemia
[25] = test system: SF-539 CNS
[26] = test system: HCT-116 colon
[27] = test system: OVCAR-8 ovarian
[28] = test system: SR leukemia
[29] = test system: HOP-62 NSCLC
[30] = test system: EKVX NSCLC
[31] = test system: MALME-3M melanoma
[32] = test system: DU-145 prostate
[33] = test system: SK-MEL-5 melanoma
[34] = test system: NCI-H522 lung
[35] = test system: UACC-257 melanoma
[36] = test system: UO-31 renal
[37] = test system: ACHN renal
[38] = test system: KM12 colon
[39] = test system: BT-549 breast
[40] = test system: SNB-75 CNS
[41] = test system: NCI-H226 lung
[42] = test system: HL-60(TB) leukemia
[43] = test system: HCT-15 colon
[44] = test system: HT29 colon
[45] = test system: MDA-MB-435
[46] = test system: LOX IMVI melanoma
[47] = test system: HS 578T breast
[48] = test system: A498 renal
[49] = test system: MOLT-4 leukemia
[50] = test system: M14 melanoma
[51] = test system: COLO 205 colon
[52] = test system: OVCAR-4 ovarian
[53] = test system: HCC-2998 colon
[54] = test system: A549 NSCLC
[55] = test system: NCI-H23 lung
[56] = test system: T-47D breast

For COc1ccc(/C=C/C(=O)c2ccc(NC(=O)CSc3nnc(-c4ccc(OC)c(OC)c4)n3-c3ccccc3)cc2)cc1, the GI50 [1] was 1.56 µM, the TGI [1] was 3.45 µM and the GI50 [2] was 14 µM. For the same compound, the TGI [2] was 28.3 µM, the GI50 [3] was 1.78 µM and the TGI [3] was 3.66 µM. For the same compound, the GI50 [4] was 1.41 µM, the TGI [4] was 5.14 µM and the GI50 [5] was 1.89 µM. For the same compound, the TGI [5] was 4.88 µM, the GI50 [6] was 5.05 µM and the TGI [6] was 18 µM. The GI50 [7] was 2.25 µM, the TGI [7] was 7.09 µM and the GI50 [8] was 3.5 µM. The TGI [8] was 16.9 µM, the GI50 [9] was 14.6 µM and the TGI [9] was 28.1 µM. The GI50 [10] was 5.78 µM, the TGI [10] was 19.2 µM and the GI50 [11] was 3.09 µM. The TGI [11] was 13.8 µM, the GI50 [12] was 3.02 µM and the TGI [12] was 10.8 µM. The GI50 [13] was 12.2 µM, the TGI [13] was 25.9 µM and the GI50 [14] was 2.66 µM. The TGI [14] was over 100 µM, the GI50 [15] was 1.72 µM and the TGI [15] was 4.41 µM. The GI50 [16] was 1.75 µM, the TGI [16] was 3.51 µM and the GI50 [17] was 2.26 µM. For the same compound, the TGI [17] was 6.59 µM, the GI50 [18] was 1.66 µM and the TGI [18] was 3.35 µM. The GI50 [19] was 1.73 µM, the TGI [19] was 3.65 µM and the GI50 [20] was 5.03 µM. It also gave a TGI [20] of 23.3 µM, a GI50 [21] of 1.72 µM and a TGI [21] of 3.26 µM. For the same compound, the GI50 [22] was 13.1 µM, the TGI [22] was 26.3 µM and the GI50 [23] was 1.96 µM. The TGI [23] was 4.07 µM, the GI50 [24] was 1.85 µM and the TGI [24] was 5.36 µM. For the same compound, the GI50 [25] was 1.8 µM, the TGI [25] was 3.31 µM and the GI50 [26] was 1.17 µM. It also gave a TGI [26] of 2.66 µM, a GI50 [27] of 3.09 µM and a TGI [27] of 14.1 µM. It also gave a GI50 [28] of 0.724 µM, a TGI [28] of 2.78 µM and a GI50 [29] of 4.36 µM. The TGI [29] was 19.4 µM, the GI50 [30] was 3.05 µM and the TGI [30] was 14.6 µM. The GI50 [31] was 1.75 µM, the TGI [31] was 3.49 µM and the GI50 [32] was 3.21 µM. The TGI [32] was 10.8 µM, the GI50 [33] was 1.81 µM and the TGI [33] was 4.12 µM. For the same compound, the GI50 [34] was 1.48 µM, the TGI [34] was 3.17 µM and the GI50 [35] was 12 µM. For the same compound, the TGI [35] was 24.4 µM, the GI50 [36] was 1.48 µM and the TGI [36] was 3.84 µM. For the same compound, the GI50 [37] was 2.38 µM, the TGI [37] was 6.1 µM and the GI50 [38] was 2.24 µM. It also gave a TGI [38] of 5.54 µM, a GI50 [39] of 1.6 µM and a TGI [39] of 3.49 µM. The GI50 [40] was 2.6 µM, the TGI [40] was 14.9 µM and the GI50 [41] was 3.92 µM. It also gave a TGI [41] of 24.3 µM, a GI50 [42] of 2.57 µM and a TGI [42] of 11.8 µM. For the same compound, the GI50 [43] was 1.8 µM, the TGI [43] was 4.27 µM and the GI50 [44] was 1.86 µM. The TGI [44] was 3.58 µM, the GI50 [45] was 1.91 µM and the TGI [45] was 4.13 µM. It also gave a GI50 [46] of 1.46 µM, a TGI [46] of 2.99 µM and a GI50 [47] of 7.68 µM. For the same compound, the TGI [47] was 54.3 µM, the GI50 [48] was 14.7 µM and the TGI [48] was 28 µM. The GI50 [49] was 2.26 µM, the TGI [49] was 9.14 µM and the GI50 [50] was 1.8 µM. The TGI [50] was 3.9 µM, the GI50 [51] was 2.1 µM and the TGI [51] was 4.56 µM. For the same compound, the GI50 [52] was 1.96 µM, the TGI [52] was 4.75 µM and the GI50 [53] was 2.97 µM. It also gave a TGI [53] of 10.1 µM, a GI50 [54] of 14.9 µM and a TGI [54] of 31.7 µM. The GI50 [55] was 1.8 µM, the TGI [55] was 4.01 µM and the GI50 [56] was 2.54 µM. It also gave a TGI [56] of 12.4 µM.
